Laboratory results from ChEMBL document CHEMBL1156447, “Cyanidin-3-rutinoside, a natural polyphenol antioxidant, selectively kills leukemic cells by induction of oxidative stress” (J Biol Chem, 2007).
Calls of active or inactive are those of the source. No cut-off for these calls is given here.

Legend:
[1] = molecular target: T1, MAP kinase p38 (Homo sapiens) (UniProt O15264+Q15759+Q16539+P53778); experiment: Increase in p38 MAPK phosphorylation in catalase pretreated human HL60 cells at 80 uM after 8 hrs by immunoblot analysis; assay type: cell-based; conditions: HL-60
HL-60 [2] = experiment: Suppression of induction of apoptosis in human HL60 cells assessed as inhibition of mitochondrial release of Smac at 80 uM after 18 hrs […] in presence of SP600125; assay type: functional, cell-based
[3] = Antioxidant activity in Ti(IV)-hydrogen peroxide complex system assessed as inhibition of hydrogen peroxide production; assay type: functional
[4] = Antioxidant activity assessed as inhibition of peroxyl radical production; assay type: functional
MOLT-4 = experiment: Induction of apoptosis in human MOLT4 cells after 18 hrs by Hoechst staining; assay type: functional, cell-based
Daudi = experiment: Induction of apoptosis in human Daudi cells after 18 hrs by Hoechst staining; assay type: functional, cell-based
HL-60 [5] = experiment: Suppression of induction of apoptosis in human HL60 cells at 80 uM after 18 hrs by Hoechst staining in presence of catalase; assay type: functional, cell-based
HL-60 [6] = experiment: Suppression of induction of apoptosis in human HL60 cells at 60 uM after 18 hrs in presence of Z-VAD; assay type: functional, cell-based
HL-60 [7] = experiment: Suppression of induction of apoptosis in human HL60 cells assessed as inhibition of mitochondrial release of Smac at 80 uM after 18 hrs […] in presence of SB-203580; assay type: functional, cell-based
[8] = molecular target: T2, c-Jun N-terminal kinase, JNK (Homo sapiens) (UniProt P45983+P53779+P45984); experiment: Increase in JNK phosphorylation in N-acetyl-cysteine pretreated human HL60 cells at 80 uM after 8 hrs by immunoblot analysis; assay type: cell-based; conditions: HL-60
HL-60 [9] = experiment: Suppression of induction of apoptosis in human HL60 cells at 80 uM after 18 hrs by Hoechst staining in presence of N-acetyl-cysteine; assay type: functional, cell-based
HL-60 [10] = experiment: Induction of apoptosis in human HL60 cells assessed as cytochrome c release at 80 uM by immunoblot analysis; assay type: functional, cell-based
HL-60 [11] = experiment: Increase in hydrogen peroxide accumulation in human HL60 cells at 80 uM by flow cytometry; assay type: functional, cell-based
CCRF-CEM [12] = experiment: Suppression of induction of apoptosis in human CCRF-CEM cells at 80 uM after 24 hrs by Hoechst staining in presence of catalase; assay type: functional, cell-based
HL-60 [13] = experiment: Induction of apoptosis in human HL60 cells assessed as Smac release at 80 uM by immunoblot analysis; assay type: functional, cell-based
PBMC = experiment: Antioxidant activity in human PBMC assessed as reduction in intracellular peroxide levels by flow cytometry; assay type: functional, cell-based
CCRF-CEM [14] = experiment: Induction of apoptosis in human CCRF-CEM cells after 18 hrs by Hoechst staining; assay type: functional, cell-based
[15] = molecular target: T1, MAP kinase p38 (Homo sapiens); experiment: Increase in p38 MAPK phosphorylation in N-acetyl-cysteine pretreated human HL60 cells at 80 uM after 2 hrs by immunoblot analysis; conditions: HL-60
HL-60 [16] = experiment: Increase in intracellular hydrogen peroxide level in human HL60 cells after 1 hr by phenol red method; assay type: functional, cell-based
HL-60 [17] = experiment: Induction of apoptosis in human HL60 cells overexpressing human Bcl XL after 18 hrs by Hoechst staining; assay type: functional, cell-based
CCRF-CEM [18] = experiment: Induction of apoptosis in human CCRF-CEM cells expressing shRNA against Bim at 80 uM after 24 hrs by Hoechst staining; assay type: functional, cell-based
[19] = molecular target: Bcl-2-like protein 11 (Homo sapiens) (UniProt O43521); experiment: Increase in Bim EL phosphorylation in human HL60 cells at 80 uM after 8 hrs by immunoblot analysis; assay type: cell-based; conditions: HL-60
CCRF-CEM [20] = experiment: Suppression of induction of apoptosis in human CCRF-CEM cells at 80 uM after 24 hrs by Hoechst staining in presence of SB-203580; assay type: functional, cell-based
HL-60 [21] = experiment: Suppression of induction of apoptosis in human HL60 cells at 80 uM after 18 hrs by Hoechst staining in presence of SB-203580; assay type: functional, cell-based
HL-60 [22] = experiment: Suppression of induction of apoptosis in human HL60 cells at 60 uM after 18 hrs in presence of DEVD-CHO; assay type: functional, cell-based
HL-60 [23] = experiment: Suppression of induction of apoptosis in human HL60 cells at 80 uM after 18 hrs by Hoechst staining in presence of SP600125; assay type: functional, cell-based
[24] = molecular target: T2, c-Jun N-terminal kinase, JNK (Homo sapiens); experiment: Increase in JNK catalase pretreated human HL60 cells at 80 uM after 8 hrs by immunoblot analysis; assay type: cell-based; conditions: HL-60
[25] = Antioxidant activity assessed as inhibition of superoxide production; assay type: functional
HL-60 [26] = experiment: Suppression of induction of apoptosis in human HL60 cells assessed as inhibition of mitochondrial release of cytochrome c at 80 uM after 18 hrs […] in presence of SP600125; assay type: functional, cell-based
HL-60 [27] = experiment: Induction of apoptosis in human HL60 cells after 18 hrs by Hoechst 33258 staining; assay type: functional, cell-based
HL-60 [28] = experiment: Suppression of induction of apoptosis in human HL60 cells assessed as inhibition of mitochondrial release of cytochrome c at 80 uM after 18 hrs […] in presence of SB-203580; assay type: functional, cell-based
[29] = molecular target: T3, Bcl-2 homologous antagonist/killer (Homo sapiens) (UniProt Q16611); experiment: Activation of Bak in human HL60 cells assessed as oligomerization and conformational change at 80 uM after 8 hrs by immunostaining; assay type: functional, cell-based; conditions: HL-60
T3 sequence (whole entry): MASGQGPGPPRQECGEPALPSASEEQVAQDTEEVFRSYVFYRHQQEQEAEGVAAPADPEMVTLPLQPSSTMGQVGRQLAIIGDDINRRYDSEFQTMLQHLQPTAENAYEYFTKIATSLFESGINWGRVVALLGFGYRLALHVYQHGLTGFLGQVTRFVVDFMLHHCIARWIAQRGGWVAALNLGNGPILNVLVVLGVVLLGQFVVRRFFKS

[30] = molecular target: Apoptosis regulator BAX (Homo sapiens) (UniProt Q07812); experiment: Activation of Bax in human HL60 cells assessed as mitochondrial translocation at 80 uM after 8 hrs by immunostaining; conditions: HL-60
HL-60 [31] = experiment: Induction of apoptosis in human HL60 cells assessed as caspase 3 activation; assay type: functional, cell-based
[32] = molecular target: T1, MAP kinase p38 (Homo sapiens); experiment: Increase in p38 MAPK phosphorylation in human HL60 cells at 80 uM after 8 hrs by immunoblot analysis; assay type: cell-based; conditions: HL-60
HL-60 [33] = experiment: Suppression of induction of apoptosis in human HL60 cells at 80 uM after 18 hrs by Hoechst staining in presence of hydrogen peroxide; assay type: functional, cell-based
HL-60 [34] = experiment: Induction of apoptosis in human HL60 cells at 60 uM by Hoechst 33258 staining; assay type: functional, cell-based; conditions: TDE = time-dependent effect
CCRF-CEM [35] = experiment: Suppression of induction of apoptosis in human CCRF-CEM cells at 80 uM after 24 hrs by Hoechst staining in presence of N-acetyl-cysteine; assay type: functional, cell-based
HL-60 [36] = experiment: Induction of apoptosis in human HL60 cells overexpressing human Bcl2 after 18 hrs by Hoechst staining; assay type: functional, cell-based
HL-60 [37] = experiment: Induction of apoptosis in human HL60 cells assessed as caspase 9 activation; assay type: functional, cell-based
[38] = molecular target: T2, c-Jun N-terminal kinase, JNK (Homo sapiens); experiment: Increase in JNK phosphorylation in human HL60 cells at 80 uM after 8 hrs by immunoblot analysis; assay type: cell-based; conditions: HL-60

Chain of Bcl-2-like protein 11 (Homo sapiens) (O43521 whole entry, looked up): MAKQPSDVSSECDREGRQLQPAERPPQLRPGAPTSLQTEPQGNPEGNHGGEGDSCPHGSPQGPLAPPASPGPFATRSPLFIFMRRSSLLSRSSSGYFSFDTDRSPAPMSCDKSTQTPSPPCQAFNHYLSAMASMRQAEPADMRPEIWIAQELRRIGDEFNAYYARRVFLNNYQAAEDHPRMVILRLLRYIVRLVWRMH
Chain of Apoptosis regulator BAX (Homo sapiens) (Q07812 whole entry): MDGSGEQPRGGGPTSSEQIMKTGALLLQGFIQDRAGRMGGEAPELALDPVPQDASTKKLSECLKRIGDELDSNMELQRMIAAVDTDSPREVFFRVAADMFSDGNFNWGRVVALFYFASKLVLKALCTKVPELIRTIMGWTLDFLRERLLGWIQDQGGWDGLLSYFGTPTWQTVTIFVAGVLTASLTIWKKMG

## C[C@@H]1O[C@@H](OC[C@H]2O[C@@H](Oc3cc4c(O)cc(O)cc4[o+]c3-c3ccc(O)c(O)c3)[C@H](O)[C@@H](O)[C@@H]2O)[C@H](O)[C@H](O)[C@H]1O
[1]
  Activity: inactive
HL-60 [2]
  Activity: Active
[3]
  Activity: Dose-dependent effect
[4]
  Activity: Active
MOLT-4
  Activity: Active
Daudi
  Activity: Active
HL-60 [5]
  Activity: Active
HL-60 [6]
  Activity: Active
HL-60 [7]
  Activity: Active
[8]
  Activity: inactive
HL-60 [9]
  Activity: Active
HL-60 [10]
  Activity: Active
HL-60 [11]
  Activity: Active
CCRF-CEM [12]
  Activity: Active
HL-60 [13]
  Activity: Active
PBMC
  Activity: Active
CCRF-CEM [14]
  Activity: Active
[15]
  Activity: inactive
HL-60 [16]
  Activity: Active
HL-60 [17]
  Activity: inactive
CCRF-CEM [18]
  Activity: inactive
[19]
  Activity: Active
CCRF-CEM [20]
  Activity: Active
HL-60 [21]
  Activity: Active
HL-60 [22]
  Activity: Active
HL-60 [23]
  Activity: Active
[24]
  Activity: inactive
[25]
  Activity: Active
HL-60 [26]
  Activity: Active
HL-60 [27]
  Activity: Dose-dependent effect
HL-60 [28]
  Activity: Active
[29]
  Activity: Active
[30]
  Activity: Active
HL-60 [31]
  Activity: Dose-dependent effect
[32]
  Activity: Active
HL-60 [33]
  Activity: Active
HL-60 [34]
  Activity: tde
CCRF-CEM [35]
  Activity: Active
HL-60 [36]
  Activity: inactive
HL-60 [37]
  Activity: Dose-dependent effect
[38]
  Activity: Active
